Counter-ions that a name gives are not always drawn.
Key:
Bcl-2 protein = Bcl-2 protein (histag-Bcl-2, UniProtKB P10415) (Homo sapiens (Human), UniProt P10415); experiment: Inhibition of Bcl-2 by the fluorescence polarisation technique; format: binding; details: fluorescence polarisation test; incubation for 2 hours; read-out: IC50 (nM) Bcl-2 FP
Description: For partial inhibitors, the percentage fluorescence polarisation inhibition for a given concentration of the test compound is indicated.

[1] = system: RS4; 11 leukaemia cell line; experiment: In vitro cytotoxicity, Microculture Tetrazolium Assay (MTT); format: cell-based; details: Homo sapiens, 11 cells exposed for 48 hours
Protocol: The cytotoxicity studies were carried out on the RS4; 11 leukaemia cell line and on H146 small Cell Lung Carcinoma cell line. The cells are distributed onto microplates and exposed to the test compounds for 48 hours. The cell viability is then quantified by a colorimetric assay, the Microculture Tetrazolium Assay (Cancer Res., 1987, 47, 939-942).

Chain of Bcl-2 protein (P10415 whole entry): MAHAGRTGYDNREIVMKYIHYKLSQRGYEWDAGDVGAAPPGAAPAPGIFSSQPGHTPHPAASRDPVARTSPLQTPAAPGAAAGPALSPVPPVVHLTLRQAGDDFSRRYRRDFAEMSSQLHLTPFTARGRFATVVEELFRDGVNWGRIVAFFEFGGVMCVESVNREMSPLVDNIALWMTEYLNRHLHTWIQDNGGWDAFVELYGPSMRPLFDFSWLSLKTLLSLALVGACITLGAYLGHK

Compound | IC50 (Bcl-2 protein) [nM] | IC50 [1] [nM]
CNC(=O)N1Cc2cc(C(=O)N3Cc4ccccc4C[C@H]3C)c(-c3cc(C(=O)N(C)c4ccc(O)cc4)c(C)n3C)cc2C1 [Example 170, 5-{4-[(4-Hydroxyphenyl)(methyl)carbamoyl]-1,5-dimethyl-1H-pyrrol-2-yl}-N-methyl-6-[(3R)-3-methyl-1,2,3,4-tetrahydroisoquinoline-2-carbonyl]-2,3-dihydro-1H-isoindole-2-carboxamide] | 12 | 491
C[C@@H]1Cc2ccccc2CN1C(=O)c1cc2c(cc1-c1cc(C(=O)N(C)c3ccc(O)cc3)c3n1CCCC3)CN(C(=O)N1CC(c3ccccc3)C1)C2 [Example 83, N-(4-Hydroxyphenyl)-N-methyl-3-{6-[(3R)-3-methyl-1,2,3,4-tetrahydroisoquinoline-2-carbonyl]-2-(3-phenylazetidine-1-carbonyl)-2,3-dihydro-1H-isoindol-5-yl}-5,6,7,8-tetrahydroindolizine-1-carboxamide] | 15 | 122
Cc1c(C(=O)N(C)c2ccc(O)cc2)cc(-c2cc3c(cc2C(=O)N2Cc4ccccc4C[C@H]2CN2CCOCC2)CN(C(=O)CCc2ccccc2)CC3)n1C [Example 130, N-(4-Hydroxyphenyl)-N,1,2-trimethyl-5-{7-[(3S)-3-(morpholin-4-ylmethyl)-1,2,3,4-tetrahydroisoquinoline-2-carbonyl]-2-(3-phenylpropanoyl)-1,2,3,4-tetrahydroisoquinolin-6-yl}-1H-pyrrole-3-carboxamide] | 3.1 | 36
CCNC(=O)N1Cc2cc(C(=O)N3Cc4ccccc4C[C@H]3C)c(-c3cc(C(=O)N(C)c4ccc(O)cc4)c(C)n3C)cc2C1 [Example 110, N-Ethyl-5-{4-[(4-hydroxyphenyl)(methyl)carbamoyl]-1,5-dimethyl-1H-pyrrol-2-yl}-6-[(3R)-3-methyl-1,2,3,4-tetrahydroisoquinoline-2-carbonyl]-2,3-dihydro-1H-isoindole-2-carboxamide] | 19 | 329
Cc1c(C(=O)N(C)c2ccc(O)cc2)cc(-c2cc3c(cc2C(=O)N2Cc4ccccc4C[C@H]2CN2CCOCC2)CN(C(=O)Oc2cccc(C#N)c2)CC3)n1C [Example 560, 3-Cyanophenyl 6-{4-[(4-hydroxyphenyl)(methyl)carbamoyl]-1,5-dimethyl-1H-pyrrol-2-yl}-7-[(3S)-3-(morpholin-4-ylmethyl)-1,2,3,4-tetrahydroisoquinoline-2-carbonyl]-1,2,3,4-tetrahydroisoquinoline-2-carboxylate] | 8.8 | 70
C[C@@H]1Cc2ccccc2CN1C(=O)c1cc2c(cc1-c1cc(C(=O)N(C)c3ccc(O)cc3)c3n1CCCC3)CN(C(=O)Oc1ccccc1)C2 [Example 45, Phenyl 5-{1-[(4-hydroxyphenyl)(methyl)carbamoyl]-5,6,7,8-tetrahydroindolizin-3-yl}-6-[(3R)-3-methyl-1,2,3,4-tetrahydroisoquinoline-2-carbonyl]-2,3-dihydro-1H-isoindole-2-carboxylate] | 15 | 20
C[C@@H]1Cc2ccccc2CN1C(=O)c1cc2c(cc1-c1cc(C(=O)N(C)c3ccc(O)cc3)c3n1CCCC3)CN(C(=O)COc1cccc(Cl)c1)C2 [Example 50, 3-{2-[2-(3-Chlorophenoxy)acetyl]-6-[(3R)-3-methyl-1,2,3,4-tetrahydroisoquinoline-2-carbonyl]-2,3-dihydro-1H-isoindol-5-yl}-N-(4-hydroxyphenyl)-N-methyl-5,6,7,8-tetrahydroindolizine-1-carboxamide] | 18 | 26
Cc1c(C(=O)N(C)c2ccccc2)cc(-c2cc3c(cc2C(=O)N2Cc4ccccc4C[C@H]2CN2CCOCC2)CN(C(=O)Oc2cnc4[nH]ccc4c2)CC3)n1C [Example 633, 1H-Pyrrolo[2,3-b]pyridin-5-yl 6-{1,5-dimethyl-4-[methyl(phenyl)carbamoyl]-1H-pyrrol-2-yl}-7-[(3S)-3-(morpholin-4-ylmethyl)-1,2,3,4-tetrahydroisoquinoline-2-carbonyl]-1,2,3,4-tetrahydroisoquinoline-2-carboxylate] | 6.1 | 22
CCCCN(CCCC)C(=O)c1cc(-c2cc3c(cc2C(=O)N2Cc4ccccc4C[C@H]2C)CN(C(=O)Oc2ccccc2)CC3)n(C)c1C [Example 163, Phenyl 6-[4-(dibutylcarbamoyl)-1,5-dimethyl-1H-pyrrol-2-yl]-7-[(3R)-3-methyl-1,2,3,4-tetrahydroisoquinoline-2-carbonyl]-1,2,3,4-tetrahydroisoquinoline-2-carboxylate] | 27 | > 150
C[C@@H]1Cc2ccccc2CN1C(=O)c1cc2c(cc1-c1cc(C(=O)N(C)c3ccc(O)cc3)c3n1CCCC3)CN(C(=O)COc1ccccc1)C2 [Example 52, N-(4-Hydroxyphenyl)-N-methyl-3-{6-[(3R)-3-methyl-1,2,3,4-tetrahydroisoquinoline-2-carbonyl]-2-(2-phenoxyacetyl)-2,3-dihydro-1H-isoindol-5-yl}-5,6,7,8-tetrahydroindolizine-1-carboxamide] | 3.8 | 56
CN(C(=O)c1cc(-c2cc3c(cc2C(=O)N2Cc4ccccc4C[C@H]2CN2CCOCC2)CN(C(=O)Oc2ccccc2)CC3)n2c1CCCC2)c1ccc(O)cc1 [Example 69, Phenyl 6-{1-[(4-hydroxyphenyl)(methyl)carbamoyl]-5,6,7,8-tetrahydroindolizin-3-yl}-7-[(3S)-3-(morpholin-4-ylmethyl)-1,2,3,4-tetrahydroisoquinoline-2-carbonyl]-1,2,3,4-tetrahydroisoquinoline-2-carboxylate hydrochloride] | 3.1 | 3.46
CN(C(=O)c1cc(-c2cc3c(cc2C(=O)N2Cc4ccccc4C[C@H]2CN2CCOCC2)CN(S(=O)(=O)c2ccc4ccccc4c2)CC3)n2c1CCCC2)c1ccc(O)cc1 [Example 5, N-(4-Hydroxyphenyl)-N-methyl-3-{7-[(3S)-3-(morpholin-4-ylmethyl)-1,2,3,4-tetrahydroisoquinoline-2-carbonyl]-2-(naphthalene-2-sulfonyl)-1,2,3,4-tetrahydroisoquinolin-6-yl}-5,6,7,8-tetrahydroindolizine-1-carboxamide] | 43 | 70
Cc1c(C(=O)N(C)c2ccccc2)cc(-c2cc3c(cc2C(=O)N2Cc4ccccc4C[C@H]2C)CNCC3)n1C [Example 119, N,1,2-Trimethyl-5-{7-[(3R)-3-methyl-1,2,3,4-tetrahydroisoquinoline-2-carbonyl]-1,2,3,4-tetrahydroisoquinolin-6-yl}-N-phenyl-1H-pyrrole-3-carboxamide hydrochloride] | 622 | > 150
CC(Cc1ccc(Cl)cc1)C(=O)N1Cc2cc(C(=O)N3Cc4ccccc4C[C@H]3C)c(-c3cc(C(=O)N(C)c4ccc(O)cc4)c4n3CCCC4)cc2C1 (stereo partly drawn) [Example 24, 3-(2-{2-[(4-Chlorophenyl)methyl]propanoyl}-6-[(3R)-3-methyl-1,2,3,4-tetrahydroisoquinoline-2-carbonyl]-2,3-dihydro-1H-isoindol-5-yl)-N-(4-hydroxyphenyl)-N-methyl-5,6,7,8-tetrahydroindolizine-1-carboxamide] | 19 | > 150
C[C@@H]1Cc2ccccc2CN1C(=O)c1cc2c(cc1-c1cc(C(=O)N(C)c3ccc(O)cc3)c3n1CCCC3)CN(C(=O)N(C)Cc1ccccc1)C2 [Example 85, N-Benzyl-5-{1-[(4-hydroxyphenyl)(methyl)carbamoyl]-5,6,7,8-tetrahydroindolizin-3-yl}-N-methyl-6-[(3R)-3-methyl-1,2,3,4-tetrahydroisoquinoline-2-carbonyl]-2,3-dihydro-1H-isoindole-2-carboxamide] | 6.1 | 58
C[C@@H]1Cc2ccccc2CN1C(=O)c1cc2c(cc1-c1cc(C(=O)N(C)c3ccc(O)cc3)c3n1CCCC3)CCN(C(=O)C1(c3ccccc3)CC1)C2 [Example 109, N-(4-Hydroxyphenyl)-N-methyl-3-{7-[(3R)-3-methyl-1,2,3,4-tetrahydroisoquinoline-2-carbonyl]-2-(1-phenylcyclopropanecarbonyl)-1,2,3,4-tetrahydroisoquinolin-6-yl}-5,6,7,8-tetrahydroindolizine-1-carboxamide] | 8.6 | 89
Cc1c(C(=O)N(C)c2ccc(O)cc2)cc(-c2cc3c(cc2C(=O)N2Cc4ccccc4C[C@H]2C)CN(C(=O)Oc2ccccc2OCCN(C)C)CC3)n1C [Example 392, 2-[2-(Dimethylamino)ethoxy]phenyl 6-{4-[(4-hydroxyphenyl) (methyl)carbamoyl]-1,5-dimethyl-1H-pyrrol-2-yl}-7-[(3R)-3-methyl-1,2,3,4-tetrahydroisoquinoline-2-carbonyl]-1,2,3,4-tetrahydroisoquinoline-2-carboxylate] | 2 | 14
C[C@@H]1Cc2ccccc2CN1C(=O)c1cc2c(cc1-c1cc(C(=O)N(C)c3ccc(O)cc3)c3n1CCCC3)CN(C(=O)NC(C)(C)C)C2 [Example 76, N-tert-Butyl-5-{1-[(4-hydroxyphenyl)(methyl)carbamoyl]-5,6,7,8-tetrahydroindolizin-3-yl}-6-[(3R)-3-methyl-1,2,3,4-tetrahydroisoquinoline-2-carbonyl]-2,3-dihydro-1H-isoindole-2-carboxamide] | 24 | > 150
C[C@@H]1Cc2ccccc2CN1C(=O)c1cc2c(cc1-c1cc(C(=O)N(C)c3ccc(O)cc3)c3n1CCCC3)CCN(S(=O)(=O)Cc1ccccc1)C2 [Example 40, N-(4-Hydroxyphenyl)-N-methyl-3-{7-[(3R)-3-methyl-1,2,3,4-tetrahydroisoquinoline-2-carbonyl]-2-phenylmethanesulfonyl-1,2,3,4-tetrahydroisoquinolin-6-yl}-5,6,7,8-tetrahydroindolizine-1-carboxamide] | 3.6 | 34

Reference: patent US9809574B2, “Isoindoline or isoquinoline compounds, a process for their preparation and pharmaceutical compositions containing them” (LES LABORATOIRES SERVIER, priority 2013, dated 2017)
